Data: patent US20240252488A1 (KOREA RESEARCH INSTITUTE OF CHEMICAL TECHNOLOGY, priority 2020, published 2024)

Assays:
MLKL [1] = target: T1, MLKL (Homo sapiens, UniProt Q8NB16); experiment: Measurement of binding affinity with MLKL receptor (competitive binding assay, Kd); design: made in house; host or cells: HEK 293 cell line (T7 phage in E. coli BL21-derived host is also described)
T1 sequence (Q8NB16 1-471): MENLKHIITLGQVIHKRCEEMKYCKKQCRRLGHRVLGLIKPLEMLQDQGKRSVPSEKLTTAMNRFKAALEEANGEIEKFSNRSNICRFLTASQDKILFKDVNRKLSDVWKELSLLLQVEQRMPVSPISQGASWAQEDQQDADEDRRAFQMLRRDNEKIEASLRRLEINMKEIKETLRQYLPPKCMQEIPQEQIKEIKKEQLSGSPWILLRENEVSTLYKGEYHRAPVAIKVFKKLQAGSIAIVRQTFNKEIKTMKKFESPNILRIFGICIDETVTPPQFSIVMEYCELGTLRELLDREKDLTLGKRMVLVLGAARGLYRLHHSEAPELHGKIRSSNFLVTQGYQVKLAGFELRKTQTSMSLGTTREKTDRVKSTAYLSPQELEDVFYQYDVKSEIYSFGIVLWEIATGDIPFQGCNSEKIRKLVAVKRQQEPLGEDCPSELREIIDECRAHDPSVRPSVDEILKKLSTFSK
In short: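 Kd from an immobilized-ligand competition format: the DNA-tagged kinase from HEK 293 expression is eluted and quantified by qPCR. Compounds added from 111× DMSO stocks, final DMSO 0.9%.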

MLKL [2] = target: T1, MLKL; experiment: MLKL degradation assay in HepG2 cell line (western blot); type: cell-based; design: endogenous in cells; host or cells: HepG2 or HaCaT; details: cell line not given; for Degradation assay (Degradation %) 1 μM: compound 1 μM; for Degradation assay (Degradation %) 10 μM: compound 10 μM
In short: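 HepG2 cells were exposed to compound at a final 1 or 10 μM for 20-24 hours at 37 °C, 5% CO2. RIPA lysates were normalized by BCA assay, 10-15 μg protein resolved by SDS-PAGE, and MLKL levels detected by western blot with chemiluminescence.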

FADD−/− Jurkat cells = experiment: Necroptosis inhibition assay, TNF-α-induced necroptosis (CellTiter-Glo 2.0); type: cell-based, human; details: TNF-α 15 ng/mL; for Necroptosis inhibition assay (Rescue %) 1 μM: compound 1 μM; for Necroptosis inhibition assay (Rescue %) 10 μM: compound 10 μM
In short: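 Cells at 5.0×10^5 cells/mL were pretreated with compound (final 0.1, 1 and 10 μM) for 30 minutes at room temperature, then given TNF-α at 15 ng/mL final. After 20 to 24 hours at 37° C, 5% CO2, viability was read as ATP luminescence to calculate cytotoxicity and necroptosis inhibition rate.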

SMILES | Kd (MLKL [1]) [nM] | Degradation assay (Degradation %) 1 μM (MLKL [2]) [%] | Degradation assay (Degradation %) 10 μM (MLKL [2]) [%] | Necroptosis inhibition assay (Rescue %) 1 μM (FADD−/− Jurkat cells) [%] | Necroptosis inhibition assay (Rescue %) 10 μM (FADD−/− Jurkat cells) [%] | Necroptosis inhibition assay (Rescue %) 1 μM (FADD−/− Jurkat cells; FADD−/− Jurkat cells) [%] | Necroptosis inhibition assay (Rescue %) 10 μM (FADD−/− Jurkat cells; FADD−/− Jurkat cells) [%]
Nc1ncc(-c2cnn(C3CCN(CC4CN(C(=O)C5CCN(c6cccc7c6C(=O)N(C6CCC(=O)NC6=O)C7=O)CC5)CCO4)CC3)c2)nc1C(=O)OC(C(=O)Nc1ccc(F)cc1)c1ccccc1 (stereo not shown) [TDH-304, 2-((4-fluorophenyl)amino)-2-oxo-1-phenylethyl 3-amino-6-(1-(1-((4-(1-(2-(2,6-dioxopiperidin-3-yl)-1,3-dioxoisoindolin-4-yl)piperidine-4-carbonyl)morpholin-2-yl)methyl)piperidin-4-yl)-1H-pyrazol-4-yl)pyrazine-2-carboxylate] | 2.9 | 85.02 | 84.91 | 38.26 | 35.22 |  | 
Nc1ncc(-c2cnn(C3CCN(CCC4CCN(C(=O)COc5ccc6c(c5)C(=O)N(C5CCC(=O)NC5=O)C6=O)CC4)CC3)c2)cc1C(=O)OC(C(=O)Nc1ccc(F)cc1)c1ccccc1 (stereo not shown) [TDH-300, 2-((4-fluorophenyl)amino)-2-oxo-1-phenylethyl 2-amino-5-(1-(1-(2-(1-(2-((2-(2,6-dioxopiperidin-3-yl)-1,3-dioxoisoindolin-5-yl)oxy)acetyl)piperidin-4-yl)ethyl)piperidin-4-yl)-1H-pyrazol-4-yl)nicotinate] | 9 | 54.31 | 69.42 | 55.98 | 38.09 |  | 
Nc1ncc(-c2cnn(C3CCN(C(=O)C4CCN(C(=O)CC5CCN(c6cccc7c6C(=O)N(C6CCC(=O)NC6=O)C7=O)CC5)CC4)CC3)c2)nc1C(=O)O[C@@H](C(=O)Nc1ccc(F)cc1)c1ccccc1 (stereo partly drawn) [TDH-374, (R)-2-((4-fluorophenyl)amino)-2-oxo-1-phenylethyl 3-amino-6-(1-(1-(1-(2-(1-(2-(2,6-dioxopiperidin-3-yl)-1,3-dioxoisoindolin-4-yl)piperidin-4-yl)acetyl)piperidine-4-carbonyl)piperidin-4-yl)-1H-pyrazol-4-yl)pyrazine-2-carboxylate] | 2.7 | 93.73 | 91.38 | 39.14 | 32.53 |  | 
Nc1ncc(-c2ccc(N3CCN(CC4CCN(C(=O)COc5cccc6c5C(=O)N(C5CCC(=O)NC5=O)C6=O)CC4)CC3)nc2)nc1C(=O)OC(C(=O)Nc1ccc(F)cc1)c1ccccc1 (stereo not shown) [TDH-255, 2-((4-fluorophenyl)amino)-2-oxo-1-phenylethyl 3-amino-6-(6-(4-((1-(2-((2-(2,6-dioxopiperidin-3-yl)-1,3-dioxoisoindolin-4-yl)oxy)acetyl)piperidin-4-yl)methyl)piperazin-1-yl)pyridin-3-yl)pyrazine-2-carboxylate] | 41 | 35.59 | 34.35 | 46.68 | 32.39 |  | 
Nc1ncc(-c2cnn(C3CCN(CCOCCOCCOCCNc4cccc5c4C(=O)N(C4CCC(=O)NC4=O)C5=O)CC3)c2)nc1C(=O)O[C@@H](C(=O)Nc1ccc(F)cc1)c1ccccc1 (stereo partly drawn) [TDH-153, (R)-2-((4-fluorophenyl)amino)-2-oxo-1-phenylethyl 3-amino-6-(1-(1-(2-(2-(2-(2-((2-(2,6-dioxopiperidin-3-yl)-1,3-dioxoisoindolin-4-yl)amino)ethoxy)ethoxy)ethoxy)ethyl)piperidin-4-yl)-1H-pyrazol-4-yl)pyrazine-2-carboxylate] | 9.2 | 37.66 | 24.63 | 37.21 | 16.52 |  | 
Nc1ncc(-c2cnn(C3CCN(CCOC4CCN(C(=O)COc5cccc6c5C(=O)N(C5CCC(=O)NC5=O)C6=O)CC4)CC3)c2)nc1C(=O)OC(C(=O)Nc1ccc(F)cc1)c1ccccc1 (stereo not shown) [TDH-251, 2-((4-fluorophenyl)amino)-2-oxo-1-phenylethyl 3-amino-6-(1-(1-(2-((1-(2-((2-(2,6-dioxopiperidin-3-yl)-1,3-dioxoisoindolin-4-yl)oxy)acetyl)piperidin-4-yl)oxy)ethyl)piperidin-4-yl)-1H-pyrazol-4-yl)pyrazine-2-carboxylate] | 1.8 | 72.87 | 63.25 | 84.44 | 74.61 |  | 
Nc1ncc(-c2cnn(C3CCN(CCOC4CCN(C(=O)CCc5cccc6c5CN(C5CCC(=O)NC5=O)C6=O)CC4)CC3)c2)nc1C(=O)O[C@@H](C(=O)Nc1ccc(F)cc1)c1ccccc1 (stereo partly drawn) [TDH-387, (R)-2-((4-fluorophenyl)amino)-2-oxo-1-phenylethyl 3-amino-6-(1-(1-(2-((1-(3-(2-(2,6-dioxopiperidin-3-yl)-1-oxoisoindolin-4-yl)propanoyl)piperidin-4-yl)oxy)ethyl)piperidin-4-yl)-1H-pyrazol-4-yl)pyrazine-2-carboxylate] | 1.6 | 85.77 | 66.9 | 37.82 | 25.00 |  | 
Nc1ncc(-c2cnn(C3CCN(CCCCCCNC(=O)COc4cccc5c4C(=O)N(C4CCC(=O)NC4=O)C5=O)CC3)c2)nc1C(=O)O[C@@H](C(=O)Nc1ccc(F)cc1)c1ccccc1 (stereo partly drawn) [TDH-133, (R)-2-((4-fluorophenyl)amino)-2-oxo-1-phenylethyl 3-amino-6-(1-(1-(6-(2-((2-(2,6-dioxopiperidin-3-yl)-1,3-dioxoisoindolin-4-yl)oxy)acetamido)hexyl)piperidin-4-yl)-1H-pyrazol-4-yl)pyrazine-2-carboxylate] | 0.78 | 53.05 | 40.54 | 91.87 | 68.81 |  | 
Nc1ncc(-c2cnn(C3CCN(C(=O)CCC4CCN(C(=O)C5CCN(c6ccc7nnn(C8CCC(=O)NC8=O)c(=O)c7c6)CC5)CC4)CC3)c2)nc1C(=O)O[C@@H](C(=O)Nc1ccc(F)cc1)c1ccccc1 (stereo partly drawn) [TDH-436, (R)-2-((4-fluorophenyl)amino)-2-oxo-1-phenylethyl 3-amino-6-(1-(1-(3-(1-(1-(3-(2,6-dioxopiperidin-3-yl)-4-oxo-3,4-dihydrobenzo[d][1,2,3]triazin-6-yl)piperidine-4-carbonyl)piperidin-4-yl)propanoyl)piperidin-4-yl)-1H-pyrazol-4-yl)pyrazine-2-carboxylate] | 3.1 | 85.98 | 71.25 |  |  | 41.81 | 21.38
Nc1ncc(-c2cnn(C3CCN(C(=O)c4cn(C5CCN(c6cccc7c6C(=O)N(C6CCC(=O)NC6=O)C7=O)CC5)cn4)CC3)c2)nc1C(=O)O[C@@H](C(=O)Nc1ccc(F)cc1)c1ccccc1 (stereo partly drawn) [TDH-364, (R)-2-((4-fluorophenyl)amino)-2-oxo-1-phenylethyl 3-amino-6-(1-(1-(1-(1-(2-(2,6-dioxopiperidin-3-yl)-1,3-dioxoisoindolin-4-yl)piperidin-4-yl)-1H-imidazole-4-carbonyl)piperidin-4-yl)-1H-pyrazol-4-yl)pyrazine-2-carboxylate] | 5.3 | 72.07 | 65.89 | 22.41 | 17.66 |  | 
Nc1ncc(-c2cnn(C3CN(CC4CCN(C(=O)COc5ccc6c(c5)C(=O)N(C5CCC(=O)NC5=O)C6=O)CC4)C3)c2)nc1C(=O)OC(C(=O)Nc1ccc(F)cc1)c1ccccc1 (stereo not shown) [TDH-299, 2-((4-fluorophenyl)amino)-2-oxo-1-phenylethyl 3-amino-6-(1-(1-((1-(2-((2-(2,6-dioxopiperidin-3-yl)-1,3-dioxoisoindolin-5-yl)oxy)acetyl)piperidin-4-yl)methyl)azetidin-3-yl)-1H-pyrazol-4-yl)pyrazine-2-carboxylate] | 7.2 | 79.84 | 89.54 | 75.61 | 62.7 |  | 
